System: T cells (CD3^+CD56^-)
Experiment: T cell numbers, viability and apoptosis in PBMCs (flow cytometry, DiOC6(3)/PI staining)
Type: cell-based, human
Experimental: To evaluate absolute cell numbers, an equal volume of PKH26 reference microbeads (Sigma-Aldrich) was added to each sample after staining for immune subset identification. Microbeads (5x10^3) were acquired by flow cytometry and absolute numbers of each immune population within the sample were calculated. Normalized percentage values were calculated considering the control (DMSO)-treated cells as 100%.
Cell viability and apoptosis were evaluated by double-staining with the mitochondrial inner transmembrane potential (ΔΨm)-sensitive dye DiOC6(3) (3,3'-dihexyloxacarbocyanine iodide; Sigma-Aldrich) and the exclusion dye propidium iodide (PI; Immunostep), allowing identification of apoptotic [DiOC6(3)^low PI^-] and dead [PI^+] cells as per Proc. Natl. Acad. Sci. U.S.A. (2014) 111(8):3020-3025 and Methods Mol. Biol. (2016) 1419:1-16. Briefly, PBMCs were resuspended in culture medium containing 20 nM DiOC6(3) and incubated for 30 minutes at 37 °C. Then, PI (1 µg/mL) was added and cells were further incubated for 10 minutes at room temperature (RT). Cells were analyzed by flow cytometry considering DiOC6(3)^+PI^- cells as viable. In some experiments, apoptosis was evaluated by staining with Annexin V/PI. Thus, PBMCs were incubated in Annexin V binding buffer containing 5 µg/mL Annexin V-FITC (Biolegend) for 15 minutes at RT and PI (1 µg/mL) was subsequently added. Data were normalized to the untreated control as a percentage. Only samples with at least 60% of viable cells (DiOC6(3)^+; Annexin V^-) in the control (DMSO) condition were employed in this study.
The effect of EC-7072 toward healthy immune subsets, T lymphocytes and natural killer (NK) cells, which are chronically exposed to leukemia cells in the peripheral blood of patients with CLL was assessed by: • (i) incubating PBMCs isolated from patients with CLL (n = 10) following treatment with increasing concentrations of EC-7072 (0 - 400 nM) for 24 hours. Numbers of T cells (CD3^+CD56^-) (Figure 2A) and NK cells (CD3^-CD56^+) (Figure 2B) were evaluated by flow cytometry and normalized to their respective control (DMSO) condition for each individual patient to obtain percentage of relative number of T cells and NK cells, respectively; • (ii) incubating PBMCs isolated from patients with CLL (n = 6 - 10) following treatment with increasing concentrations of EC-7072 (0 - 400 nM) for 24 hours. Viability of immune subsets (leukemia cells, T cells and NK cells) was determined by cytofluorometric assessment of DiOC6(3)/PI staining and normalized to their respective control (DMSO) condition for each individual patient to obtain percentage of viable [DiOC6(3)^+] cells (Figures 2C and 2D); • (iii) incubating PBMCs isolated from patients with CLL (n = 11) following treatment with DMSO or EC-7072 (200 nM) for 24 hours. Numbers of CD4^+ cells (Figure 2E) and CD8^+ T cells (Figure 2F) were evaluated by flow cytometry and normalized to their respective control (DMSO) condition for each individual experiment; • (iv) incubating PBMCs isolated from healthy donors (n = 15) following treatment with EC-7072 (200 nM) for 24 hours. […]

## CO[C@@H]([C@@H]1Cc2cc3cc(O[C@H]4C[C@@H](O[C@H]5C[C@@H](O)[C@H](O)[C@@H](C)O5)[C@H](O)[C@@H](C)O4)c(C)c(O)c3c(O)c2C(=O)[C@H]1O[C@H]1C[C@@H](O[C@H]2C[C@@H](O[C@H]3C[C@](C)(O)[C@H](O)[C@@H](C)O3)[C@@H](O)[C@@H](C)O2)[C@H](O)[C@@H](C)O1)[C@@H](O)C(C)=O [EC-7072, mithramycin SK]
0 - 400 nM, 24 hours, PBMCs from patients with CLL
  T cell numbers and viability: negligible effects
200 nM, 24 hours, PBMCs from healthy donors (n = 4), Figure 2Q
  ratio of apoptosis to cell death in T cells: comparable to that induced by EC-7073
200 nM, 24 hours, PBMCs from healthy donors (n = 10), Figure 2N
  viability of T cells, comparison of mithralogs: not exhibit toxicity
200 nM, 24 hours, PBMCs from healthy donors (n = 15), compared with PBMCs from patients with CLL
  cell numbers and viability of T lymphocytes: comparable effects
EC-7072 200 nM 24 hours vs fludarabine 10 µM 24 hours, PBMCs from patients with CLL (n = 6 - 8), Figure 4F
  toxicity against T cells compared with fludarabine: significantly less toxic than fludarabine

— patent EP3797781A1, “USE OF EC-7072 AND SYNERGIC COMPOSITIONS THEREOF IN TREATMENT OF CHRONIC LYMPHOCYTIC LEUKEMIA” (priority 2019, dated 2021)
